pEC50: −log10 of the molar value. Read-outs that look alike come from different tables or passages of the source.

Common to all, as to format: cell-based
Assay [1] concerns the target T1, hPPARγ (LBD) (Homo sapiens, UniProt P37231).
T1 construct: A receptor expression plasmid (pSG5-GAL4-hPPARα or γ or δ (LBD)); GAL4 (fusion partner); expressed in transfected cells; host or cells: CV-1 cells (ATCC)
T1 sequence (P37231 238-503 limits assumed): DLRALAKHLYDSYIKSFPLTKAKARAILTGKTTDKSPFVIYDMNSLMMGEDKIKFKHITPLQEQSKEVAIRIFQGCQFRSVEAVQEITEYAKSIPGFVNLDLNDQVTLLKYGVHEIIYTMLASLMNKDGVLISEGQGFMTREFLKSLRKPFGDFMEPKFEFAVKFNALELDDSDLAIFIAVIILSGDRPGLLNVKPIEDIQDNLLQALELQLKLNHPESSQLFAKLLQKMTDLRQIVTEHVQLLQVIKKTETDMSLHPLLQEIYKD
The experiment in a line: PPAR activating effect, GAL4-hPPARγ LBD luciferase reporter transfection in CV-1 cells. In general terms: A reporter such as luciferase makes a cellular process visible.

For assay [2], the target named is T2, hPPARα (LBD) (Homo sapiens, UniProt Q07869).
T2 construct: A receptor expression plasmid (pSG5-GAL4-hPPARα or γ or δ (LBD)); GAL4 (fusion partner); expressed in transfected cells; host or cells: CV-1 cells (ATCC)
T2 sequence (Q07869 239-466 limits assumed): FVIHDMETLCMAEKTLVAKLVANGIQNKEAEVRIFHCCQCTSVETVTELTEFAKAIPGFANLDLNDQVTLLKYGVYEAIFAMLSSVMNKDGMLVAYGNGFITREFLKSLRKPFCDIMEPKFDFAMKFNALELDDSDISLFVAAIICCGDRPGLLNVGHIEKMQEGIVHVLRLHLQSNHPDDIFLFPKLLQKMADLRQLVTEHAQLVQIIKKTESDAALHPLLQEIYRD
The experiment in a line: PPAR activating effect, GAL4-hPPARα LBD luciferase reporter transfection in CV-1 cells. As to conditions: for PPAR activity α (relative value to control compound): 100% = GW-590735 10^-6 M.

In assay [3] the target is T3, hPPARδ (LBD) (Homo sapiens, UniProt Q03181).
T3 construct: A receptor expression plasmid (pSG5-GAL4-hPPARα or γ or δ (LBD)); GAL4 (fusion partner); expressed in transfected cells; host or cells: CV-1 cells (ATCC)
T3 sequence (Q03181 211-439 limits assumed): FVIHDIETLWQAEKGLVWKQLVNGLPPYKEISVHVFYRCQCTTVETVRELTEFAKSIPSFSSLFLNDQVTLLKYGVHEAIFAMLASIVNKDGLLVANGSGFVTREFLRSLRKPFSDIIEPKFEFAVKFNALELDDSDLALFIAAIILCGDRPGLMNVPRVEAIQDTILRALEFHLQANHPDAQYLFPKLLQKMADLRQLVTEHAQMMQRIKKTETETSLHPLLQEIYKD
The experiment in a line: PPAR activating effect, GAL4-hPPARδ LBD luciferase reporter transfection in CV-1 cells. Set-up: activation: dose or concentration left out as unconfirmed. The note with it: for activation: CV-1, 40 h, read-out: PPAR activity δ (relative value to control compound).

The mark [4] stands for this setting: Table 26, test compound 10^-7 M.
Where [5] appears, read: Table 24, 100% = Rosiglitazone 10^-5 M, CV-1 cells, approx. 40 h.
Where [6] appears, read: Table 24, CV-1 cells, approx. 40 h.

Turning to “2-[3-[2-[3-Isopropyl-6-(trifluoromethyl)benzothiophen-2-yl]ethyl]benzisoxazol-6-yloxy]propionic acid [Example 27]”, the “PPAR activity γ (relative value to control compound)” value in assay [1] (Table 26, test compound 10^-7 M, 100% = Rosiglitazone 10^-5 M) is listed as “Inactive”. In addition, the “PPAR activity α (relative value to control compound)” value in assay [2] (setting [4]) is “Inactive”.

With `Cc1cc(C(=O)CCc2sc3ccc(C(F)(F)F)cc3c2C)ccc1OCC(=O)O` [Example 3, 2-Methyl-4-[3-[3-methyl-5-(trifluoromethyl)-benzothiophen-2-yl]propionyl]phenoxyacetic acid], the “PPAR activity γ (relative value to control compound)” value in assay [1] (setting [5]) is listed as “Inactive”. Besides, the “PPAR activity α (relative value to control compound)” value in assay [2] (setting [6]) is reported as “Inactive”. Moreover, the activation in assay [3] worked out at 4.4%.

Consider `Cc1cc(C(=O)CCc2sc3ccc(C(F)(F)F)cc3c2C)ccc1OC(C)(C)C(=O)O` [Example 4, 2-Methyl-2-[2-methyl-4-[3-[3-methyl-5-(trifluoromethyl)-benzothiophen-2-yl]propionyl]phenoxy]propionic acid], for which the “PPAR activity γ (relative value to control compound)” value in assay [1] (setting [5]) is given as 9.0%. Moreover, in assay [3], the activation was 19.2%.

On to `Cc1cc(C(=O)CCc2sc3cc(C(F)(F)F)ccc3c2C)ccc1OCC(=O)O` [Example 5, 2-Methyl-4-[3-[3-methyl-6-(trifluoromethyl)-benzothiophen-2-yl]propionyl]phenoxyacetic acid], for which the “PPAR activity γ (relative value to control compound)” value in assay [1] (setting [5]) was “Inactive”. For the same compound, the “PPAR activity α (relative value to control compound)” value in assay [2] (setting [6]) was “Inactive”. In addition, the activation in assay [3] was 23%.

For the compound `Cc1cc(C(=O)CCc2sc3cc(C(F)(F)F)ccc3c2C)ccc1OC(C)(C)C(=O)O` [Example 6], in assay [1], the “PPAR activity γ (relative value to control compound)” value is “Inactive”. In addition, the “PPAR activity α (relative value to control compound)” value in assay [2] (setting [6]) is “Inactive”. Moreover, the “PPAR activity δ (relative value to control compound)” value in assay [3] (Table 24, 100% = GW-501516 10^-7 M, CV-1 cells, approx. 40 h) worked out at 40.8%.

As to `Cc1cc(C(=O)CCc2sc3cc(C(F)(F)F)ccc3c2C)ccc1CCC(=O)O` [Example 7, 3-[4-[3-[3-Methyl-6-(trifluoromethyl)-benzothiophen-2-yl]propionyl]-2-methylphenyl]propionic acid], in assay [1] (setting [5]), the “PPAR activity γ (relative value to control compound)” value is “Inactive”. The “PPAR activity α (relative value to control compound)” value in assay [2] (setting [6]) is on record as “Inactive”. Also, in assay [3], the activation came out at 51.4%.

For the compound `CCc1c(CCC(=O)c2ccc(CCC(=O)O)c(C)c2)sc2cc(C(F)(F)F)ccc12` [Example 8, 3-[4-[3-[3-Ethyl-6-(trifluoromethyl)benzothiophen-2-yl]propionyl]-2-methylphenyl]propionic acid], the “PPAR activity γ (relative value to control compound)” value in assay [1] (setting [5]) is listed as “Inactive”. The “PPAR activity α (relative value to control compound)” value in assay [2] (setting [6]) was “Inactive”. The activation in assay [3] came out at 81%.

In the case of `CCCc1c(CCC(=O)c2ccc(CCC(=O)O)c(C)c2)sc2cc(C(F)(F)F)ccc12` [Example 9, 3-[2-Methyl-4-[3-[3-propyl-6-(trifluoromethyl)benzothiophen-2-yl]propionyl]phenyl]propionic acid], the “PPAR activity γ (relative value to control compound)” value in assay [1] (setting [5]) is given as 1.3%. Besides, in assay [2] (setting [6]), the “PPAR activity α (relative value to control compound)” value was “Inactive”. For the same compound, the activation in assay [3] is 83.5%.

Turning to `CCCCc1c(CCC(=O)c2ccc(CCC(=O)O)c(C)c2)sc2cc(C(F)(F)F)ccc12` [Example 10, 3-[2-Methyl-4-[3-[3-butyl-6-(trifluoromethyl)benzothiophen-2-yl]propionyl]phenyl]propionic acid], in assay [1] (setting [5]), the “PPAR activity γ (relative value to control compound)” value amounted to 2.2%. Moreover, in assay [2] (setting [6]), the “PPAR activity α (relative value to control compound)” value was “Inactive”. In assay [3], the activation worked out at 66.1%.

Consider `Cc1cc(C(=O)CCc2sc3cc(C(F)(F)F)ccc3c2CC(C)C)ccc1CCC(=O)O` [Example 11, 3-[2-Methyl-4-[3-[3-isobutyl-6-(trifluoromethyl)benzothiophen-2-yl]propionyl]phenyl]propionic acid], for which, in assay [1] (setting [5]), the “PPAR activity γ (relative value to control compound)” value is “Inactive”. Further, the “PPAR activity α (relative value to control compound)” value in assay [2] (setting [6]) is “Inactive”. Further, the activation in assay [3] amounted to 60.9%.

As to `Cc1cc(C(=O)CCc2sc3cc(C(F)(F)F)ccc3c2C(C)C)ccc1CCC(=O)O` [Example 12, 3-[2-methyl-4-[3-[3-isopropyl-6-(trifluoromethyl)benzothiophen-2-yl]propionyl]phenyl]propionic acid], the “PPAR activity γ (relative value to control compound)” value in assay [1] (setting [5]) was “Inactive”. In addition, the “PPAR activity α (relative value to control compound)” value in assay [2] (setting [6]) is “Inactive”. In assay [3], the activation is 87.3%.

In the case of `Cc1cc(C(CCc2sc3cc(C(F)(F)F)ccc3c2C(C)C)=NO)ccc1CCC(=O)O` [Example 13, 3-[4-[1-Hydroxyimino-3-[3-isopropyl-6-(trifluoromethyl)-benzothiophen-2-yl]propyl]-2-methylphenyl]propionic acid], the “PPAR activity γ (relative value to control compound)” value in assay [1] (setting [5]) is “Inactive”. In addition, in assay [2] (setting [6]), the “PPAR activity α (relative value to control compound)” value is “Inactive”. For the same compound, in assay [3], the activation was 90.4%.

Take `C=C(CCc1sc2cc(C(F)(F)F)ccc2c1C(C)C)c1ccc(CCC(=O)O)c(C)c1` [Example 14, 3-[4-[1-[2-[3-Isopropyl-6-(trifluoromethyl)-benzothiophen-2-yl]ethyl]vinyl]-2-methylphenyl]propionic acid]: the “PPAR activity γ (relative value to control compound)” value in assay [1] (setting [5]) is recorded as “Inactive”. Moreover, the “PPAR activity α (relative value to control compound)” value in assay [2] (setting [6]) is on record as “Inactive”. Moreover, the activation in assay [3] was determined as 73%.

As for `Cc1cc(C(=O)CCc2sc3cc(C(F)(F)F)ccc3c2C(C)C)ccc1OCC(=O)O` [Example 15, 4-[3-[3-Isopropyl-6-(trifluoromethyl)benzothiophen-2-yl]-propionyl]-2-methylphenoxyacetic acid], the “PPAR activity γ (relative value to control compound)” value in assay [1] (setting [5]) is “Inactive”. Also, in assay [2] (setting [6]), the “PPAR activity α (relative value to control compound)” value is given as “Inactive”. For the same compound, in assay [3], the activation worked out at 77.4%.

Turning to `Cc1cc(C(CCc2sc3cc(C(F)(F)F)ccc3c2C(C)C)=NO)ccc1OCC(=O)O` [Example 16, 4-[1-Hydroxyimino-3-[3-isopropyl-6-(trifluoromethyl)-benzothiophen-2-yl]propyl]-2-methyl-phenoxyacetic acid], the “PPAR activity γ (relative value to control compound)” value in assay [1] (setting [5]) is “Inactive”. The “PPAR activity α (relative value to control compound)” value in assay [2] (setting [6]) is given as “Inactive”. The activation in assay [3] was 51.7%.

Take `CON=C(CCc1sc2cc(C(F)(F)F)ccc2c1C(C)C)c1ccc(OCC(=O)O)c(C)c1` [Example 17, 4-[3-[3-Isopropyl-6-(trifluoromethyl)benzothiophen-2-yl]-1-methoxyiminopropyl]-2-methylphenoxyacetic acid]: the “PPAR activity γ (relative value to control compound)” value in assay [1] (setting [5]) was “Inactive”. The “PPAR activity α (relative value to control compound)” value in assay [2] (setting [6]) is “Inactive”. Besides, the activation in assay [3] is 45.9%.

For the compound `Cc1cc2c(CCc3sc4cc(C(F)(F)F)ccc4c3C(C)C)noc2cc1OCC(=O)O` [Example 19, [3-[2-[3-Isopropyl-6-(trifluoromethyl)benzothiophen-2-yl]-ethyl]-5-methyl-benzisoxazol-6-yloxy]acetic acid], the “PPAR activity γ (relative value to control compound)” value in assay [1] (setting [5]) is listed as “Inactive”. The pEC50 – broadly, the negative decadic logarithm of the EC50, by convention in mol/L – in assay [1] (Table 25, CV-1 cells, method of Example 29, read-out: PPAR activity (EC50) γ) was below 5.00; in assay [2] (Table 25, CV-1 cells, method of Example 29, read-out: PPAR activity (EC50) α), below 5.00; in assay [3] (Table 25, CV-1 cells, method of Example 29, read-out: PPAR activity (EC50) δ), 8.32. Also, the “PPAR activity α (relative value to control compound)” value in assay [2] (setting [6]) is given as “Inactive”. Besides, the activation in assay [3] worked out at 91.7%. The “selectivity of PPAR δ-activating effect” value in assay [3] (compared with GW-501516, from EC50 α, γ, δ of Table 25) is “superior to that of the GW-501516”.

As for `Cc1cc2c(CCc3sc4cc(C(F)(F)F)ccc4c3C(C)C)noc2cc1N(C)CC(=O)O` [Example 20, N-[3-[2-[3-Isopropyl-6-(trifluoromethyl)benzothiophen-2-yl]ethyl]-5-methylbenzisoxazol-6-yl]-N-methylglycine], the “PPAR activity γ (relative value to control compound)” value in assay [1] (setting [5]) was “Inactive”. Also, the activation in assay [3] turned out to be 88%.

In the case of `CCCc1c(CCC(=O)c2cc(C)c(OCC(=O)O)cc2O)sc2cc(C(F)(F)F)ccc12` [Example 22], the “PPAR activity γ (relative value to control compound)” value in assay [1] is reported as “Inactive”. The “PPAR activity α (relative value to control compound)” value in assay [2] (setting [4]) is “Inactive”.

The values are drawn from US8648208B2, “Activating agent for peroxisome proliferator activated receptor” (Nippon Chemiphar Co. Ltd., priority 2008, dated 2014).
